Test [1] has as its system rat hippocampal slices. Briefly: Epileptiform responses in hippocampal slices (field potentials, CA3 area). Format: cell-based, Sprague-Dawley rats. More on the design: rate of spontaneous field bursting in HKLCF: dose or concentration left out as unconfirmed. Particulars: for evoked epileptiform responses (PS1 amplitude, repetitive PSs) in HKLCF: CA3 area, fimbrial stimulation, high-K+/low-Ca2+ fluid. The protocol:
The effect of brivaracetam on epileptiform responses induced by high-K+/low-Ca2+ concentrations or by bicuculline was examined in transverse hippocampal slices prepared from Sprague-Dawley rats according to previously reported standard procedures. The epileptiform responses were induced by passing from a normal perfusion of artificial cerebrospinal fluid (ACSF) (K+3 mM; Ca2+2.4 mM) to either high-K+/low-Ca2+ fluid (HKLCF) (K+7.5 mM; Ca2+0.5 mM) or to […] bicuculline methiodide (BMI)-containing ACSF.
Extracellular field potentials (FPs) were recorded in the CA3 area of the slices with 2 M NaCl-filled glass microelectrodes. The evoked FPs were recorded at 10-min intervals in response to fimbrial stimulation with constant current rectangular pulses that elicit a single population spike (PS) of 50-75% of the maximal amplitude when the slice is in ACSF. In the HKLCF model, 2 min of spontaneous activity were also recorded, in the middle of each 10-min interval between the recordings of evoked responses.
Either brivaracetam or levetiracetam was added to the bathing fluid of the slices 20 min before shifting from ACSF to either HKLCF or […] BMI-containing ACSF, and was kept in the perfusion fluid throughout the experiment.

Test [2] deals with genetically sound-sensitive male mice. Briefly: Audiogenic seizures in mice. Particulars: audiogenic seizure-susceptible mice; brivaracetam i.p. 30 min, levetiracetam i.p. 60 min pretreatment. It counts as in vivo. The protocol: Audiogenic seizures in mice: Genetically sound-sensitive male mice (16-28 g; n=10 per group), responding with wild running, clonic and tonic convulsions to an acoustic stimulation, were used. Audiogenic seizures were induced by an acoustic stimulus (90 dB, 10-20 kHz) applied for 30 s. The mice were pretreated with either saline, brivaracetam (i.p., 30 min) or levetiracetam (i.p., 60 min), and the proportion of mice protected against clonic convulsions was used as the end point to assess anticonvulsant activity.

Test [3] has as its system rat hippocampal slices. Particulars: cited from earlier work.
Test [4] concerns amygdala-kindled rats. Briefly: Fully amygdala-kindled rats. It counts as in vivo, rat. Particulars: for dose significantly reducing the after-discharge duration: 212.3 is the highest brivaracetam dose tested.
In test [5] the test system is pentylenetetrazol-induced clonic convulsions in mice. Briefly: Chemically induced seizures in mice (pentylenetetrazol). Format: in vivo. Particulars: i.p. 30 min before seizure induction, higher ED50 values than audiogenic model. The protocol: The dose was selected based on dose-effect curves in saline-treated animals as the convulsive dose inducing clonic convulsions of all four extremities in 97% of the animals. Immediately after administration of the chemoconvulsant, the mice were placed individually in small plastic cages (25 13 8 cm) and observed for the presence of clonic convulsions in all four extremities, for 60 min. The occurrence of tonic convulsions (hindlimb extension) and mortality was also recorded during this interval. The proportion of mice protected against clonic convulsions was calculated and used as the end point for anticonvulsant activity.

Test [6] concerns corneally kindled mice. Briefly: Corneal kindling of mice. It counts as in vivo.
The subject of test [7] is patients with post-herpetic neuralgia. Particulars: cited from earlier work.
Test [8] deals with epilepsy patients. Particulars: adult patients, adjunctive treatment; cited from earlier work.
For test [9], the system named is GAERS rats. The experiment in a line: Spontaneous SWDs in GAERS rats. It counts as in vivo, rat.

Bounds are passed on as bounds.

On to `CC[C@@H](C(N)=O)N1CCCC1=O` [Levetiracetam], for which, in test [1], the “evoked epileptiform responses (PS1 amplitude, repetitive PSs) in HKLCF” value was “reduced these epileptiform responses”. Also, in test [2], the “protection against the expression of clonic convulsions” value is reported as “protected against the expression of clonic convulsions”. For the same compound, the “epileptiform responses induced by high-K+/low-Ca2+ concentrations in the perfusion fluid and by bicuculline” value in [3] is given as “reduces epileptiform responses”. In test [4], the “dose from which significant suppression in motor-seizure severity is induced” value is at least 170 mg/kg and the “dose significantly reducing the after-discharge duration” value was over 1700 mg/kg.

Turning to `CCC[C@@H]1CC(=O)N([C@@H](CC)C(N)=O)C1` [Brivaracetam, (2S)-2-[(4R)-2-oxo-4-propyl-pyrrolidin-1-yl] butanamide], in test [1], the “rate of spontaneous field bursting in HKLCF” value is listed as “reduced the rate of this spontaneous bursting” and the “evoked epileptiform responses (PS1 amplitude, repetitive PSs) in HKLCF” value is listed as “reduced these epileptiform responses”. In addition, the “protection against the expression of clonic convulsions” value in test [2] is “protected against the expression of clonic convulsions”. Further, the “protection against clonic convulsions induced by pentylenetetrazol” value in test [5] is given as “protected against clonic convulsions induced by pentylenetetrazol”. For the same compound, the “incidence of generalized motor seizures after termination of treatment” value in test [6] (continued corneal stimulations, group previously treated with the highest dose) is on record as “persistent reduction in the incidence of generalized motor seizures”. Besides, in test [6] (pretreatment during corneal kindling of mice), the “incidence of generalized motor seizures” value was “significant reduction in the incidence of generalized motor seizures”. Also, the “efficacy in the treatment of post-herpetic neuralgia” value in test [7] is recorded as “effective in the treatment of patients with post-herpetic neuralgia”. In [4], the “dose from which significant suppression in motor-seizure severity is induced” value is at least 21.2 mg/kg and the “dose significantly reducing the after-discharge duration” value was 212.3 mg/kg. The “efficacy in the treatment of epilepsy” value in test [8] is recorded as “effective in the treatment of epilepsy”. Also, the “dose from which spontaneous SWDs are significantly suppressed” value in test [9] is at least 2.1 mg/kg. The “dose giving complete inhibition of spontaneous SWDs” value in test [9] (highest dose tested) was determined as 67.9 mg/kg.

Consider `CC[C@@H](C(N)=O)N1C[C@H](C=C(F)F)CC1=O` [Seletracetam, (2S)-2-[(4S)-4-(2,2-difluorovinyl)-2-oxo-pyrrolidin-1-yl]butanamide], for which the “efficacy in the treatment of epilepsy” value in [8] is “effective in the treatment of epilepsy”.
